This passage reports binding to vesicles and Kd results from patent publication US7314620B2, “Methods for diagnosis and treatment of PH domain signal transduction disorders” (New York University, priority 1995, dated 2008).

One experiment addresses T1, Dyn-PH (Homo sapiens, UniProt Q05193).
T1 construct: The PH domains from PLC-δ1, and dynamin, as well as the N-terminal PH domain of pleckstrin; made in house; host or cells: Escherichia coli (T7 system)
T1 sequence (Q05193 519-625 limits assumed): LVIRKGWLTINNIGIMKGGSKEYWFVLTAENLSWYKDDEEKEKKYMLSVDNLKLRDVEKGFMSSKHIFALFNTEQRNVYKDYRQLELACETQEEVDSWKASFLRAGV
The experiment is described as follows: Equilibrium gel filtration (Hummel and Dreyer) of PH domain binding to lipid vesicles. The settings on record: PIP2-containing vesicles. Here is the method: A 150×7.5 mm Superdex 75 column, attached to a Dionex HPLC system, was equilibrated with buffer containing PH domain at around 5 μM (depending upon the experiment). A suspension of vesicles that also contained 5 μM PH domain was then injected. In the absence of interaction between the PH domain and the vesicles, the resulting column profile (detected by absorbance at 280 nm) reflects only the lipid peak. However, if there is significant interaction, a trough is observed at a position corresponding to the elution position of the free PH domain, since the lipids have removed free PH domain from the column buffer. When such a trough was observed, in order to determine a KD for the interaction, a series of higher concentrations of PH domain were injected, all with constant lipid concentration. A plot of trough area against [PH] in the injected sample was linear, becoming positive when excess free protein was present in the injected sample (see FIG. 5B). This line was used to determine the point at which no trough was observed. […] Since [PH]total as well as [lipid]total in the injected sample are known, KD can be determined, as KD=([PH]free×[lipid]free)/[complex]. […]
We also utilized the equilibrium gel-filtration approach described by Hummel, J. P., and Dreyer, W. J., Biochim. […] If an interaction is observed, its KD can be determined as described in Experimental Procedures. […]

A further experiment has as its target T2, PlecN-PH (Homo sapiens, UniProt P08567).
T2 construct: residues 1-110 of pleckstrin (PlecN-PH); initiator methionine (N); made in house; host or cells: Escherichia coli (pET11a, T7 system)
T2 sequence (P08567 1-110): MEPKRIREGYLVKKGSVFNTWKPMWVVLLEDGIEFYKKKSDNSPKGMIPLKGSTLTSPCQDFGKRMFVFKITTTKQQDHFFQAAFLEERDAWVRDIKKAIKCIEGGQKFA
Described as above. The settings on record: PIP2-containing vesicles; overestimate; inhibited by moderately high NaCl; read-out: apparent KD for vesicle binding. On the procedure:
(§1) A 150×7.5 mm Superdex 75 column, attached to a Dionex HPLC system, was equilibrated with buffer containing PH domain at around 5 μM (depending upon the experiment). A suspension of vesicles that also contained 5 μM PH domain was then injected. In the absence of interaction between the PH domain and the vesicles, the resulting column profile (detected by absorbance at 280 nm) reflects only the lipid peak. However, if there is significant interaction, a trough is observed at a position corresponding to the elution position of the free PH domain, since the lipids have removed free PH domain from the column buffer. When such a trough was observed, in order to determine a KD for the interaction, a series of higher concentrations of PH domain were injected, all with constant lipid concentration. A plot of trough area against [PH] in the injected sample was linear, becoming positive when excess free protein was present in the injected sample (see FIG. 5B). This line was used to determine the point at which no trough was observed. At this point, [PH]free in the injected sample is equal to [PH] in the column buffer. Since [PH]total as well as [lipid]total in the injected sample are known, KD can be determined, as KD=([PH]free×[lipid]free)/[complex]. [complex]=[PH]total−[PH]free, and [lipid]free=[lipid]total−[complex].
(§2) We also utilized the equilibrium gel-filtration approach described by Hummel, J. P., and Dreyer, W. J., Biochim. Biophys. Acta. 63, 530-532, 1962. In this approach, a size exclusion column is equilibrated with a solution of the ligand (5 μM PH domain in this case), and a solution of macromolecule (a vesicle suspension in this case) that also contains 5 μM ligand is then injected. In the absence of interaction between the ligand and macromolecule, a single peak, corresponding to the macromolecule, is observed. […] If an interaction is observed, its KD can be determined as described in Experimental Procedures. […]

Another experiment has as its target T3, PLCδ-PH (Rattus norvegicus, UniProt P10688).
T3 construct: initiator methionine (N); made in house; host or cells: Escherichia coli (pET11a, T7 system)
T3 sequence (P10688 20-136): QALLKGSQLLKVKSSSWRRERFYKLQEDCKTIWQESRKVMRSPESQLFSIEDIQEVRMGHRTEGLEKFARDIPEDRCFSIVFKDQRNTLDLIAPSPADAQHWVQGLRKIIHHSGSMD
The experiment is described as above. The settings on record: lipid-containing DMPC vesicles; overestimates of the real KD; read-out: apparent KD for vesicle binding. On the procedure: as §1, §2

The next experiment concerns the target T4, whole PLC-δ1 (Homo sapiens, UniProt P51178).
T4 sequence (P51178 1-756): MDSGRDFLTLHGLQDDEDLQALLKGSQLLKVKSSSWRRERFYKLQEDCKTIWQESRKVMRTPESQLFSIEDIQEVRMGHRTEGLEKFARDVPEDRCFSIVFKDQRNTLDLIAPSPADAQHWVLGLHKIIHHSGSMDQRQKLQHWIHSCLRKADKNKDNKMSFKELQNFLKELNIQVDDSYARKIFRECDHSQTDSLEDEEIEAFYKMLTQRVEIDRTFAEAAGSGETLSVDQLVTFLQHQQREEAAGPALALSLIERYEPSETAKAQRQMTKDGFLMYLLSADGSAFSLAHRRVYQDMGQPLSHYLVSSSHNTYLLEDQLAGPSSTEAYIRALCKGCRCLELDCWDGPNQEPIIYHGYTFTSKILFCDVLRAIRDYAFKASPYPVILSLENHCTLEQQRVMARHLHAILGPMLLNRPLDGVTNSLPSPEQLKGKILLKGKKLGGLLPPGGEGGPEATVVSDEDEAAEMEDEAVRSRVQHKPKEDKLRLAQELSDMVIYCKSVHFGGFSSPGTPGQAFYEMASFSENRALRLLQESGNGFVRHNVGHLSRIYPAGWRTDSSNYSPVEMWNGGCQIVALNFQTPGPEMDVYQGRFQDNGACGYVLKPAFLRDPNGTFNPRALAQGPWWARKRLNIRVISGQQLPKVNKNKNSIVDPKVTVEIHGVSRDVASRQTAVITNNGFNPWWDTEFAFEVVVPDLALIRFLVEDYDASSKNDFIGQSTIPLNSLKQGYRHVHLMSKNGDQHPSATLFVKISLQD
The settings on record: sucrose-loaded PIP2-containing vesicles; Rebecchi et al. 1992; read-out: apparent KD; cited from earlier work.

In experiment [1] the test system is any PH domain (PLCδ-PH, Dyn-PH, PlecN-PH). The experiment is described as follows: Centrifugation-based assay of PH domain binding to lipid vesicles. The settings on record: lipid at 5% in DMPC vesicles. Here is the method: Attempts to detect PH domain association with lipid vesicles were performed exactly as described by Harlan, J. E. et al., Nature 371, 168-170, 1994. In addition to using the BCA protein assay reagent, for which lipid blanks were rather high compared with the values expected for the protein concentrations employed, we also measured OD278 of the supernatants after addition of SDS in order to detect removal of protein upon pelleting vesicles. […] Initially, we performed a centrifugation-based assay, using the conditions described by Harlan, J. E. et al., Nature 371, 168-170, 1994. […] Similarly, we were unable to detect association of any of the PH domains with the same vesicles by using size-exclusion chromatography to separate protein and lipid. Any complexes between the PH domains and these vesicles therefore form with low affinity and/or have fast dissociation kinetics, such that they dissociate in the separation methods employed.

pKd: −log10 of the molar value.

As a reminder, the pKd is −log10 of the Kd, conventionally taken in molar units. In the case of “Phosphatidylinositol-(4,5)-bisphosphate [PIP2]”, the figures for the binding to vesicles entry (on Dyn-PH; in experiment [1]) were “no detectable binding” and “no binding”, respectively. Further, the pKd on PlecN-PH is about 4.05; on PLCδ-PH, 4.89; at whole PLC-δ1, about 5.60.
